The test system of assay [1] is GPx-1. The experiment in a line: Cellular GPx-1 activity in treated A549 cells. The assay is classed as cell-based, human. To be noted: 48 h. As for the experimental part:
(§1) A549 cells were prior seeded on 6-well plate (at the density of 1 × 10^5 cells/well) for 24 h. Then the medium was discarded and fresh culture medium with Au25P1_9 at different doses was added to make cells exposed to final Au doses at 0, 100, 200, 400 and 800 μM, respectively. After another 48 h incubation, the cells were washed thrice with PBS and lysed by cell lysis buffer containing 1 mM PMSF for 15 min on a shaker at 4 °C. The lysed cells were collected and centrifuged for 20 min at 12,000 g to get total protein of cells. The protein dose of each sample was quantified by BCA Protein Assay Kit and the GPx-1 activity of peptide-Au clusters treated A549 cells was measured by GPx Activity Colorimetric Assay Kit, respectively. For the control experiments, a series of Au doses of Au25P1_9 at 0, 5, 25, 100, 400 μM were incubated with the GPx-1 containing cell lysate of A549 cells for 10 min and the GPx-1 activity of theses samples was also measured. The GPx-1 activity of untreated samples was set as 100%, and that of peptide-Au clusters treated samples were expressed as a relative percentage of untreated ones.

A further assay has as its system HCT-8 cells. The experiment in a line: Cell viability assay (CCK-8), HCT-8. The assay is classed as cell-based, human. Conditions: HCT-8, same condition as A549. On the procedure:
(§2) Briefly, cells were prior cultured on 96-well plates (at the density of 5 × 10^3 cells/well) for 24 h to allow cells attachment. The cells were treated with different doses of these free peptides (0, 1, 4, 16, 64, 256, 1024 µM) and peptide-Au clusters (0, 50, 100, 200, 400, 800 µM in Au dose) for 48 h, respectively. The cells were washed three times with PBS and then incubated with fresh growth medium containing 10% (v/v) CCK-8 reagent for 1 h at 37 °C for cell viability assay. The absorbance was measured at 450 nm by using a microplate reader (SpectraMAX M2, Sunnyvale, California). Cell viability of untreated cells was set as 100%, and that of treated cells were expressed as a relative percentage of untreated cells. All data were shown as mean percentages ± standard deviation from three independent experiments.

Assay [2] relates to GPx-1. Kind of assay: GPx-1 activity in A549 cell lysate. Conditions: Au dose 0, 5, 25, 100, 400 μM, 10 min. It is filed as biochemical, human. On the procedure:
as §1

The test system of assay [3] is A549 cells. The experiment in a line: Cellular location observed by CLSM. The assay is classed as cell-based, human. Conditions: 800 µM Au, 48 h, live A549 cells. As for the experimental part:
A549 cells were seeded on glass-bottom dishes (35 mm, MatTek Corporation) for confocal laser scanning microscopy (CLSM) observation. After 24 h, Au25P1_9 was added to culture medium and the final Au dose was 800 µM. The A549 cells were next exposed to Au25P1_9 for 48 h. Then the cells were washed three times with PBS and incubated with 10 µg/mL Hoechst 33342 at 37 °C under darkness for 10 min. Before observation, the culture medium was discarded and the cells were washed three times with PBS, supplemented with fresh culture medium. Finally, in A549 cells, the cell nucleus and Au25P1_9 were imaged under Nikon Ti-e microscope with excitation at wavelengths of 405 nm and 560 nm, respectively. To identify the accurate location of Au25P1_9 in cytoplasm of A549 cells, lysotracker green, a lysosome probe, was added in the medium after cells were incubated with Au25P1_9 for 48 h. The cells were then observed by CLSM with excitation at wavelengths of 488 nm and 560 nm, respectively.

In assay [4] the test system is GPx-1. The experiment in a line: GPx-1 expression in A549 cells, western blotting. To be noted: Au dose 0, 100, 200, 400, 800 μM, 48 h. It is filed as cell-based, human. As for the experimental part:
(§3) The expression of GPx-1, caspase-3 and PARP from Au25P1_9 treated A549 cells were analyzed by western blotting. A549 cells were prior seeded on 6-well plate (at the density of 1 × 10^5 cells/well) for 24 h. Then the medium was discarded and fresh culture medium with Au25P1_9 at different doses was added to make cells exposed to final Au doses at 0, 100, 200, 400 and 800 μM, respectively. After another 48 h incubation, the cells were harvested and lysed by cell lysis buffer for Western and IP (containing 20 mM Tris-HCl, pH7.5, 150 mM NaCl, 1% Triton X-100, sodium pyrophosphate, β-glycerophosphate, EDTA, Na3VO4 and leupeptin), protease inhibitor cocktail tablet and 1 mM PMSF for 15 min on a shaker at 4 °C. The lysed cells were collected and centrifuged for 15 min at 12,000 g to get total protein of cells. The protein dose of each sample was prior quantified, and then loading buffer was added. After boiling for 5 min, the protein samples with equal amount were separated on 12% SDS polyacrylamide gel electrophoresis and then transferred onto the polyvinylidene difluoride (PVDF) membrane. Membrane was blocked by 5% nonfat dried milk prepared in tris(hydroxymethyl)amin omethane-NaCl-Tween 20 (TBST) at room temperature for 1 h, and then incubated with primary antibodies specific to β-actin, Caspase-3, PARP and GPx-1 at 4 °C overnight, respectively. […]
A general note: Immunoblotting shows a protein as a band on a membrane.

The next assay deals with caspase-3. Kind of assay: Cleaved caspase-3 level, western blotting. The assay is classed as cell-based, human. Conditions: serial Au doses (0, 100, 200, 400, 800 μM), 48 h. As for the experimental part:
as §3

The test system of another assay is Hela cells. Kind of assay: Cell viability assay (CCK-8), Hela. The assay is classed as cell-based. Conditions: same condition as A549. On the procedure: as §2
The subject of assay [5] is A549 cells. The experiment in a line: Uptake of Au25P1_9 by A549 cells determined by ICP-MS. The assay is classed as cell-based, human. To be noted: Au dose 0, 100, 200, 400, 800 μM, 48 h. As for the experimental part:
The cells were cultured in medium supplemented with 10% fetal bovine serum and 1% penicillin and streptomycin in a culture flask (25 cm^2), reseeded every 2–4 days to maintain subconfluency and kept in humidified atmosphere of 95% air and 5% CO2 at 37 °C. After cells reaching 80% confluence during the exponential growth in culture flask, the cells were harvested and subcultured on 6-well plate (at the density of 1 × 10^5 cells/well) for 24 h. Then the medium was discarded and fresh culture medium with Au25P1_9 at different doses was added to make cells exposed to final Au doses at 0, 100, 200, 400 and 800 μM, respectively. After another 48 h incubation, the cells were treated with trypsin and collected, and then washed thrice with PBS. 5 × 10^5 cells of each sample counted by flow cytometry were predigested by HNO3 and H2O2 at a volume ratio of 3:1 for 12 h and further digested by aqua regia at 160 °C, and then diluted to 10 mL aqueous solution with 1% HCl and 2% HNO3. Finally, the amount of Au25P1_9 taken into cells was measured by ICP-MS with Au calibration curve.

The test system of assay [6] is A549 cells. The experiment in a line: Cell viability assay (CCK-8), A549. The assay is classed as cell-based, human. To be noted: 48 h; for cell viability suppression by peptide-Au clusters (words): A549, Au dose 0, 50, 100, 200, 400, 800 µM. As for the experimental part:
as §2

The next assay concerns PARP. The experiment in a line: Cleaved PARP level, western blotting. It is filed as cell-based, human. Conditions: serial Au doses (0, 100, 200, 400, 800 μM), 48 h. As for the experimental part: as §3

Entries after “also recorded” stand apart in the source; their conditions may differ.

One sequence from article PMC5428013, “Peptide-Au Clusters Induced Tumor Cells Apoptosis via Targeting Glutathione Peroxidase-1: The Molecular Dynamics Assisted Experimental Studies” (Scientific Reports, 2017) can be followed below.

With “CCYGGPEEEEEVG [Au25P1_9, Au25 cluster coated by nine P1 peptides (…)]”, the “cellular GPx-1 activity (relative to untreated = 100%)” value with GPx-1 [1] (800 μM of Au) was 27%. The “cellular GPx-1 activity” value with GPx-1 [1] (Au dose 0, 100, 200, 400, 800 μM) was “significantly decreases as Au25P1_9 dose increase; also recorded: the most effective candidate for suppression of GPx-1 activity in buffer and cells”. Besides, the “change of cell viability” value with HCT-8 cells and in the assay with Hela cells was “almost negligible” throughout. Further, the “GPx-1 activity in cell lysate” value with GPx-1 [2] was “suppressed via an Au dose dependent manner”. Besides, the cellular location entry in the assay with A549 cells [3] is “red emission can be observed in the cytoplasm of live A549 cells”. Besides, the GPx-1 expression level result in the assay on GPx-1 [4] is “GPx-1 level remains stable”. Further, in the assay with caspase-3, the “cleaved caspase-3 level” value is “Au dose-dependent increase of cleaved caspases-3”. For the same sequence, the “cellular uptake” value in the assay with A549 cells [5] is given as “dosage dependent manner”. Further, the figures for the “cell viability suppression by peptide-Au clusters (words)” value in the assay with A549 cells [6] and in the assay with A549 cells [6] (listed as Au25P19) were “can suppress cell viability” and “exhibits the best suppression capacity for A549 cell viability”, respectively. For the same sequence, the “cell viability (relative to untreated = 100%)” value in the assay with A549 cells [6] (A549, Au dose of 800 μM, CCK-8, mean from three independent experiments) was determined as 40%. Besides, in the assay with PARP, the “cleaved PARP level” value was “Au dose-dependent increase of cleaved caspases-3 and cleaved PARP levels”.
